Like-named read-outs stand apart in the source and are kept apart here. Ends that are not written are not given here.
Key:
Assay in all cases: biochemical
Type in all cases: binding
[1] = molecular target: HLA-DR DRB1*01:01 (Homo sapiens, UniProt P01903+P01911, A100R/D57E/F55L/F60I/F76Y/I96L/L162R/M171V/P40L/Q125E/R42F/V115G/Y59C)
[2] = molecular target: HLA-DR DRB1*03:01 (Homo sapiens, UniProt P01903+P01911, A100K/A102G/A103R/A169T/F55Y/I96L/K41T/L162R/M171V/P40S/Q125H/Q178H/Q39Y/R42S/S66N/T106N/T262R/W38E/Y61H)
Chain of HLA-DR DRB1*03:01 (P01903 26-254 limits assumed, other chains not shown): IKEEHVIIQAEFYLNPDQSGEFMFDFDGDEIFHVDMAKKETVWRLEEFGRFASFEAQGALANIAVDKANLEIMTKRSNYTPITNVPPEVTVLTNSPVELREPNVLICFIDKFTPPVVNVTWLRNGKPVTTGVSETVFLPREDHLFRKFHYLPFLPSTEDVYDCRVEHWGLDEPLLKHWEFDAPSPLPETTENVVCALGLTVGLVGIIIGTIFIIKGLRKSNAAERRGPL

[3] = molecular target: HLA-DR DRB1*04:01 (Homo sapiens, UniProt P01903+P01911, A100K/A169T/F76Y/I96L/K127E/L162R/M171V/N62H/P40V/Q125Y/R42H/S133A/S149N/S66Y/V115G/V209L/W38E)
[4] = molecular target: HLA-DR DRB1*04:05 (Homo sapiens, UniProt P01903+P01911, A100R/A169T/D86S/F76Y/I96L/K127E/L162R/M171V/N62H/P40V/Q125Y/R42H/S133A/S149N/S66Y/V115G/V209L/W38E)
[5] = molecular target: HLA-DR DRB1*07:01 (Homo sapiens, UniProt P01903+P01911, A100R/A102G/A103Q/D57E/D86V/E43K/F76Y/K127E/L162R/M171V/P40G/Q125H/Q99D/R33Q/R42Y/R54Q/S133A/S66F/T210M/V115G/Y107V/Y59L/Y89S)
[6] = molecular target: HLA-DR DRB1*08:02 (Homo sapiens, UniProt P01903+P01911, A100R/A103L/A169T/F76Y/H45Y/I96F/K41T/L162R/M171V/P40S/Q125H/Q178H/Q39Y/Q99D/R218S/R42G/S66Y/V115G/W38E)
[7] = molecular target: HLA-DR DRB1*09:01 (Homo sapiens, UniProt P01903+P01911, A100R/A103E/D57H/D86V/F55Y/F60I/F76Y/I96F/K127E/L162R/M171V/P40D/Q125H/Q99R/R33Q/R42F/S133A/S66N/T210M/V115G/W38K/Y107V/Y59G/Y89S)
[8] = molecular target: HLA-DR DRB1*10:01 (Homo sapiens, UniProt P01903+P01911, A100R/A169T/D57E/F55L/F60V/F69Y/F76Y/I96L/L162R/M171V/P40V/Q260P/Q39E/Q99R/R195Q/R42F/S149N/S66Y/T210M/V115G/V67A/W38E/Y59R/Y61H)
[9] = molecular target: HLA-DR DRB1*11:01 (Homo sapiens, UniProt P01903+P01911, A100R/A169T/A87E/I96F/K41T/L162R/M171V/P40S/Q125H/Q178H/Q39Y/Q99D/R42S/S66Y/T262R/V115G/W38E)
Chain of HLA-DR DRB1*11:01 (P01903 26-254 limits assumed, other chains not shown): as above

[10] = molecular target: HLA-DR DRB1*12:01 (Homo sapiens, UniProt P01903+P01911, A100R/A169T/D57E/D86V/F55L/H45Y/K41T/L162R/M171V/P40S/Q125H/Q178H/Q39Y/Q99D/R42G/S66L/T262R/V114A/V67L/W38E/Y59H/Y61H/Y89S)
[11] = molecular target: HLA-DR DRB1*13:02 (Homo sapiens, UniProt P01903+P01911, A100E/A169T/K41T/L162R/M171V/P40S/Q125H/Q178H/Q39Y/Q99D/R42S/S66N/T262R/V115G/W38E/Y61H)
Chain of HLA-DR DRB1*13:02 (P01903 26-254 limits assumed, other chains not shown): as above

[12] = molecular target: T1, HLA-DP DPA1*01:03/DPB1*02:01 (Homo sapiens, UniProt P04440+P20036, A65V/A84D/A85E/K98E)
T1 sequence (P20036 29-260): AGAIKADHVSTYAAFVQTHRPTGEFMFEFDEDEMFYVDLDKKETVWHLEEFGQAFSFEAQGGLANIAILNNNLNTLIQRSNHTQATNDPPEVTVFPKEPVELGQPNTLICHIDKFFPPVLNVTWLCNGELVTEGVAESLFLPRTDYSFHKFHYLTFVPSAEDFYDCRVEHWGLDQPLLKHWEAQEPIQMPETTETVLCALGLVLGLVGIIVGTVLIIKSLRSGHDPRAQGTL
T1 sequence (P04440 30-258 A65V/A84D/A85E/K98E): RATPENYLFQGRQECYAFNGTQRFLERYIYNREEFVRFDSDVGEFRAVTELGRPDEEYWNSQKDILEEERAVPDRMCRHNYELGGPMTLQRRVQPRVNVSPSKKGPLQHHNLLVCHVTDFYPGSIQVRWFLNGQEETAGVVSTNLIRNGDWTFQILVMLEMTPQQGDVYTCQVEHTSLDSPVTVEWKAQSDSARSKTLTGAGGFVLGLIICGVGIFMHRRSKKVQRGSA

[13] = molecular target: T2, HLA-DP DPA1*01:03/DPB1*20:01 (Homo sapiens, UniProt P04440+P20036, A65V/A84D/A85E/E86D/F38Y/G113D/G114E/G40L/I94L/L37V/M116V/P115A/R125K/T199I)
T2 sequence (P20036 29-260): T1 sequence (P20036 29-260)
T2 sequence (P04440 30-258 L37V/F38Y/G40L/A65V/A84D/A85E/E86D/I94L/G113D/G114E/P115A/M116V/R125K/T199I/V234M): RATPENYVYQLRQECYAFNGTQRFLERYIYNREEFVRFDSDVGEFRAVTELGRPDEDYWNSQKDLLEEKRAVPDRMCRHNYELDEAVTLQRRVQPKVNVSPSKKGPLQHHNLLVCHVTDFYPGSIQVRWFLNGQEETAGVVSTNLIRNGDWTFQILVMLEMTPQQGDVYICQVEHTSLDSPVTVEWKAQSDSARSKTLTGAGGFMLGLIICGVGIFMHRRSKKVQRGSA

[14] = read-out: Binding capacity/IC50 (nM) DPA1*01:03 DPB1*02:01
[15] = read-out: Binding capacity/IC50 (nM) DPA1*01:03 DPB1*20:01
[16] = read-out: Binding capacity/IC50 (nM) DRB1*01:01
[17] = read-out: Binding capacity/IC50 (nM) DRB1*03:01
[18] = read-out: Binding capacity/IC50 (nM) DRB1*04:01
[19] = read-out: Binding capacity/IC50 (nM) DRB1*04:05
[20] = read-out: Binding capacity/IC50 (nM) DRB1*07:01
[21] = read-out: Binding capacity/IC50 (nM) DRB1*08:02
[22] = read-out: Binding capacity/IC50 (nM) DRB1*09:01
[23] = read-out: Binding capacity/IC50 (nM) DRB1*10:01
[24] = read-out: Binding capacity/IC50 (nM) DRB1*11:01
[25] = read-out: Binding capacity/IC50 (nM) DRB1*12:01
[26] = read-out: Binding capacity/IC50 (nM) DRB1*13:02

| Compound | IC50 [1] | IC50 [2] | IC50 [3] | IC50 [4] | IC50 [5] | IC50 [6] | IC50 [7] | IC50 [8] | IC50 [9] | IC50 [10] | IC50 [11] | IC50 [12, 14] | IC50 [13, 15] | IC50 [1, 16] | IC50 [2, 17] | IC50 [3, 18] | IC50 [4, 19] | IC50 [5, 20] | IC50 [6, 21] | IC50 [7, 22] | other results |
| --- | --- | --- | --- | --- | --- | --- | --- | --- | --- | --- | --- | --- | --- | --- | --- | --- | --- | --- | --- | --- | --- |
| CC(C)C[C@H](NC(=O)[C@H](CCCCN)NC(=O)[C@@H](NC(=O)[C@H](CC(C)C)NC(=O)[C@@H]1CCCN1C(=O)[C@@H]1CCCN1C(=O)[C@@H](NC(=O)[C@H](CC(N)=O)NC(=O)[C@@H](NC(=O)[C@H](Cc1ccccc1)NC(=O)[C@H](CCC(=O)O)NC(=O)[C@H](Cc1c[nH]c2ccccc12)NC(=O)[C@@H](N)CCC(=O)O)C(C)C)[C@@H](C)O)C(C)C)C(=O)N[C@@H](Cc1c[nH]c2ccccc12)C(=O)N[C@@H](Cc1ccc(O)cc1)C(N)=O [RT(413-427)] | 26 nM | 469 nM | 42 nM | 78 nM | 39 nM | 58 nM | 57 nM | 12 nM | 312 nM | 260 nM | 2220 nM | 639 nM | 1070 nM |  |  |  |  |  |  |  |  |
| IVALIIAIVVWTIV-NH2 [vpu(13-26)] |  |  |  |  |  |  |  |  |  |  |  | 29900 nM | 5810 nM | 261 nM | > 30000 nM | 19600 nM | 14900 nM | > 30000 nM | 765 nM | 6640 nM | IC50 [8, 23]: 1780 nM; IC50 [9, 24]: 12700 nM; IC50 [10, 25]: 12700 nM; IC50 [11, 26]: > 30000 nM |
| CSCC[C@H](NC(=O)[C@H](CCCCN)NC(=O)[C@H](C)NC(=O)[C@H](Cc1ccc(O)cc1)NC(=O)[C@H](CCCCN)NC(=O)CNC(=O)[C@@H](NC(=O)[C@H](CCCCN)NC(=O)[C@H](CC(C)C)NC(=O)[C@H](CC(N)=O)NC(=O)[C@H](CCCCN)NC(=O)[C@H](Cc1ccccc1)NC(=O)[C@@H]1CCCN1C(=O)[C@H](CCC(=O)O)NC(=O)[C@@H](N)CCC(N)=O)[C@@H](C)O)C(N)=O [RT(343-357)] | 81 nM | 23300 nM | 591 nM | 277 nM | 6210 nM | 947 nM | 335 nM | 19 nM | 428 nM | 239 nM | 25000 nM | 115 nM | 2790 nM |  |  |  |  |  |  |  |  |
| CC[C@H](C)[C@H](NC(=O)[C@H](CCCCN)NC(=O)[C@H](CCC(N)=O)NC(=O)[C@@H](NC(=O)[C@H](C)NC(=O)[C@H](CCC(=O)O)NC(=O)[C@@H](N)[C@@H](C)O)C(C)C)C(=O)N[C@@H](C)C(=O)N[C@H](C(=O)N[C@@H](CCC(=O)O)C(=O)N[C@@H](CO)C(=O)N[C@H](C(=O)N[C@H](C(=O)N[C@H](C(=O)N[C@@H](Cc1c[nH]c2ccccc12)C(=O)NCC(=O)N[C@@H](CCCCN)C(=O)N[C@H](C(=O)N1CCC[C@H]1C(=O)N[C@@H](CCCCN)C(=O)N[C@@H](Cc1ccccc1)C(=O)N[C@@H](CCCNC(=N)N)C(=O)N[C@@H](CC(C)C)C(N)=O)[C@@H](C)O)[C@@H](C)CC)C(C)C)[C@@H](C)CC)[C@@H](C)O [RT(369-391)] |  |  |  |  |  |  |  |  |  |  |  | 2210 nM | 972 nM | 65 nM | 287 nM | 146 nM | 2630 nM | 20 nM | 24 nM | 310 nM | IC50 [8, 23]: 24 nM; IC50 [9, 24]: 329 nM; IC50 [10, 25]: 471 nM; IC50 [11, 26]: 1290 nM |
| SEELRSLYNTVATLYCVHQ-NH2 [p17(72-90)] |  |  |  |  |  |  |  |  |  |  |  | 67 nM | 2310 nM | 20 nM | 652 nM | 279 nM | 421 nM | 661 nM | 73 nM | 217 nM | IC50 [8, 23]: 39 nM; IC50 [9, 24]: 1070 nM; IC50 [10, 25]: 1680 nM; IC50 [11, 26]: 1050 nM |
| VVIQDNSDIKVVPRRKAKII-NH2 [integrase(249-268)] | 110 nM | 90 nM | 2870 nM | 6080 nM | 5710 nM | 89 nM | 7040 nM | 913 nM | 28 nM | 2280 nM | 5420 nM |  | 1080 nM |  |  |  |  |  |  |  | IC50 [12]: 7420 nM |
| CC[C@H](C)[C@H](NC(=O)[C@H](C)NC(=O)[C@@H](N)CCC(=O)O)C(=O)N[C@H](C(=O)N[C@@H](CCCNC(=N)N)C(=O)N[C@H](C(=O)N[C@@H](CC(C)C)C(=O)N[C@@H](CCC(N)=O)C(=O)N[C@@H](CCC(N)=O)C(=O)N[C@@H](CC(C)C)C(=O)N[C@@H](CC(C)C)C(=O)N[C@@H](Cc1ccccc1)C(=O)N[C@H](C(=O)N[C@@H](Cc1c[nH]cn1)C(=O)N[C@@H](Cc1ccccc1)C(=O)N[C@@H](CCCNC(=N)N)C(=O)N[C@H](C(=O)NCC(=O)N[C@@H](CS)C(=O)N[C@@H](CCC(N)=O)C(=O)N[C@@H](Cc1c[nH]cn1)C(=O)N[C@@H](CO)C(=O)N[C@@H](CCCNC(=N)N)C(N)=O)[C@@H](C)CC)[C@@H](C)CC)[C@@H](C)CC)[C@@H](C)CC [vpr(58-80)] | 305 nM | 14400 nM | 361 nM | 294 nM | 885 nM | 61 nM | 477 nM | 170 nM | 724 nM | 845 nM | 5010 nM | 717 nM |  |  |  |  |  |  |  |  | IC50 [13]: 398 nM |
